Measurements: ChEMBL document CHEMBL1125547, “Synthesis and excitatory amino acid pharmacology of a series of heterocyclic-fused quinoxalinones and quinazolinones” (J Med Chem, 1992)

Columns and labels:
[1] = target: T1, Glutamate receptor ionotropic, AMPA (Rattus norvegicus, UniProt P19490+P19491+P19492+P19493); assay: Displacement of [3H]AMPA from Ionotropic glutamate receptor AMPA.; format: protein-complex assay
[2] = target: Glutamate receptor ionotropic, NMDA 1 (Rattus norvegicus, UniProt P35439); assay: Displacement of [3H]glycine from glycine site on the NMDA receptor.
[3] = target: T1, Glutamate receptor ionotropic, AMPA; assay: Compound was tested for its ability to displace [3H]-AMPA from AMPA receptor; format: protein-complex assay
[4] = target: Glutamate NMDA receptor; assay: Compound was tested for its ability to displace [3H]glycine from glycine site on the N-methyl-D-aspartate glutamate receptor; format: protein-complex assay

CCc1nnc2c(O)nc3cc(Cl)c(Cl)cc3n12 gave a Ki [1] of 4.78 µM and a Ki [2] of 4.58 µM.
In the case of O=[N+]([O-])c1ccc2c(c1)nc(O)c1nnnn12, the Ki [1] is reported as greater than 10 µM and the Ki [2] is reported as greater than 10 µM.
For Oc1nc2cc(Cl)c(Cl)cc2n2nnnc12, the Ki [1] was greater than 10 µM and the Ki [2] was greater than 10 µM.
In the case of CCCCc1nnc2c(=O)[nH]c3cc(Cl)c(Cl)cc3n12, the Ki [1] is reported as 1.71 µM and the Ki [2] is reported as 1.48 µM.
Oc1nc2cc(Cl)c(Cl)cc2n2cnnc12 gave a Ki [1] of 4.69 µM and a Ki [2] of 0.63 µM.
With O=c1[nH]c2cc(F)c(F)cc2n2cnnc12 the Ki [1] was greater than 10 µM and the Ki [2] was greater than 10 µM.
With Oc1nc2cc(Cl)c(Cl)cc2c2ccnn12 the Ki [1] was greater than 10 µM and the Ki [2] was greater than 10 µM.
CCCc1nnc2c(O)nc3cc(Cl)c(Cl)cc3n12 gave a Ki [2] of 3.92 µM.
In the case of O=c1[nH]c2ccc([N+](=O)[O-])cc2n2nnnc12, the Ki [1] is reported as greater than 10 µM and the Ki [2] is reported as greater than 10 µM.
Work on O=c1[nH]c2cc(Cl)ccc2c2ccnn12 yielded a Ki [1] greater than 10 µM and a Ki [2] greater than 10 µM.
With O=[N+]([O-])c1cc2nc(O)c3nncn3c2cc1[N+](=O)[O-] the Ki [3] was 5.49 µM and the Ki [4] was 5.12 µM.
Compound O=[N+]([O-])c1ccc2c(c1)nc(O)c1nncn12 has a Ki [1] of 0.99 µM and a Ki [2] of 7.35 µM.
For Cc1nnc2c(=O)[nH]c3cc(Cl)c(Cl)cc3n12, the Ki [1] was 4.45 µM and the Ki [2] was greater than 10 µM.
With Oc1nc2cc(Cl)c(Cl)cc2n2c(-c3ccccc3)nnc12 the Ki [1] was greater than 10 µM and the Ki [2] was greater than 10 µM.
With Oc1nc2cc(Cl)cc(Cl)c2n2cnnc12 the Ki [1] was 3.24 µM and the Ki [2] was 2.85 µM.
Oc1nc2cc(Cl)c(Cl)cc2n2ccnc12 showed a Ki [1] of 7.38 µM and a Ki [2] of 1.26 µM.
Oc1nc2cc(Cl)c(Cl)cc2n2c(C(F)(F)F)nnc12 was tested, and the Ki [1] was greater than 10 µM and the Ki [2] was greater than 10 µM.
In the case of O=[N+]([O-])c1cc2nc(O)c3nnnn3c2cc1[N+](=O)[O-], the Ki [3] is reported as greater than 10 µM and the Ki [4] is reported as greater than 10 µM.
With Oc1nc2cc(Cl)c(Cl)cc2nc1O [2,3-DIHYDROXY-6,7-DICHLOROQUINOXALINE] the Ki [1] was 1.64 µM and the Ki [2] was 0.21 µM.
O=c1[nH]c2cc([N+](=O)[O-])c([N+](=O)[O-])cc2[nH]c1=O [DNQX] gave a Ki [4] of 0.39 µM.
